Results published in patent US11970494B2, “6-heteroaryloxy benzimidazoles and azabenzimidazoles as JAK2 inhibitors” (Ajax Therapeutics, Inc., priority 2021, dated 2024).

How the values were obtained:
Caco2 Permeability Assay = format: in vitro ADME; details: human; for efflux ratio at 2 h, 5 μM: pH 7.4, Caco-2, 5 μM, read-out: Efflux Ratio (ER); for Papp A→B at 2 h, 5 μM: pH 7.4, Caco-2, apical to basolateral
Method: Preparation of Caco-2 Cells: 50 μL and 25 mL of cell culture medium are added to each well of a Transwell® insert and reservoir, respectively. Then, the HTS Transwell® plates are incubated at 37° C., 5% CO2 for 1 hour before cell seeding. Caco-2 cell cells are diluted to 6.86×10^5 cells/mL with culture medium, and 50 μL of cell suspension are dispensed into the filter well of the 96-well HTS Transwell® plate. Cells are cultivated for 14-18 days in a cell culture incubator at 37° C., 5% CO2, 95% relative humidity. Cell culture medium is replaced every other day, beginning no later than 24 hours after initial plating.
Preparation of Stock Solutions: 10 mM stock solutions of test compounds are prepared in DMSO. The stock solutions of positive controls are prepared in DMSO at the concentration of 10 mM. Digoxin and propranolol are used as control compounds in this assay.
Assessment of Cell Monolayer Integrity: Medium is removed from the reservoir and each Transwell® insert and is replaced with prewarmed fresh culture medium. Transepithelial electrical resistance (TEER) across the monolayer is measured using Millicell Epithelial Volt-Ohm measuring system (Millipore, USA). The Plate is returned to the incubator once the measurement is done. The TEER value is calculated according to the following equation: TEER measurement (ohms)×Area of membrane (cm^2)=TEER value (ohm⋅cm^2). A TEER value greater than 230 ohm⋅cm^2 indicates a well-qualified Caco-2 monolayer.
Assay Procedure: The Caco-2 plate is removed from the incubator and washed twice with pre-warmed HBSS (10 mM HEPES, pH 7.4), and then incubated at 37° C. for 30 minutes. The stock solutions of control compounds are diluted in DMSO to get 1 mM solutions and then diluted with HBSS (10 mM HEPES, pH 7.4) to get 5 μM working solutions. The stock solutions of the test compounds are diluted in DMSO to get 1 mM solutions and then diluted with HBSS (10 mM HEPES and 4% BSA, pH 7.4) to get 5 μM working solutions. The final concentration of DMSO in the incubation system is 0.5%. To determine the rate of drug transport in the apical to basolateral direction. 75 μL of 5 μM working solutions of test compounds are added to the Transwell® insert (apical compartment) and the wells in the receiver plate (basolateral compartment) are filled with 235 μL of HBSS (10 mM HEPES and 4% BSA, pH 7.4). To determine the rate of drug transport in the basolateral to apical direction, 235 μL of 5 μM working solutions of test compounds are added to the receiver plate wells (basolateral compartment) and then the Transwell® inserts (apical compartment) are filled with 75 μL of HBSS (10 mM HEPES and 4% BSA, pH 7.4). Time 0 samples are prepared by transferring 50 μL of 5 μM working solution to wells of the 96-deepwell plate, followed by the addition of 200 μL cold methanol containing appropriate internal standards (IS). The plates are incubated at 37° C. for 2 hours. At the end of the incubation, 50 μL samples from donor sides (apical compartment for Ap→*Bl flux, and basolateral compartment for Bl→Ap) and receiver sides (basolateral compartment for Ap→Bl flux, and apical compartment for Bl→Ap) are transferred to wells of a new 96-well plate, followed by the addition of 4 volume of cold acetonitrile or methanol containing appropriate internal standards (IS). Samples are vortexed for 5 minutes and then centrifuged at 3,220 g for 40 minutes. An aliquot of 100 μL of the supernatant is mixed with an appropriate volume of ultra-pure water before LC-MS/MS analysis. To determine the Lucifer Yellow leakage after 2 hour transport period, stock solution of Lucifer yellow is prepared in ultra-pure water and diluted with HBSS (10 mM HEPES, pH 7.4) to reach the final concentration of 100 μM. 100 μL of the Lucifer yellow solution is added to each Transwell® insert (apical compartment), followed by filling the wells in the receiver plate (basolateral compartment) with 300 μL of HBSS (10 mM HEPES, pH 7.4). […]

Tyk2 = biological target: T1, Tyk2 (Homo sapiens, UniProt P29597); assay: JAK Family Selectivity Assay: Tyk2 vs JAK2 binding affinity; details: Kd TYK2 over Kd JAK2
T1 construct: made in house; host or cells: T7 phage in BL21-derived E. coli or HEK-293 cells
T1 sequence (P29597 whole entry): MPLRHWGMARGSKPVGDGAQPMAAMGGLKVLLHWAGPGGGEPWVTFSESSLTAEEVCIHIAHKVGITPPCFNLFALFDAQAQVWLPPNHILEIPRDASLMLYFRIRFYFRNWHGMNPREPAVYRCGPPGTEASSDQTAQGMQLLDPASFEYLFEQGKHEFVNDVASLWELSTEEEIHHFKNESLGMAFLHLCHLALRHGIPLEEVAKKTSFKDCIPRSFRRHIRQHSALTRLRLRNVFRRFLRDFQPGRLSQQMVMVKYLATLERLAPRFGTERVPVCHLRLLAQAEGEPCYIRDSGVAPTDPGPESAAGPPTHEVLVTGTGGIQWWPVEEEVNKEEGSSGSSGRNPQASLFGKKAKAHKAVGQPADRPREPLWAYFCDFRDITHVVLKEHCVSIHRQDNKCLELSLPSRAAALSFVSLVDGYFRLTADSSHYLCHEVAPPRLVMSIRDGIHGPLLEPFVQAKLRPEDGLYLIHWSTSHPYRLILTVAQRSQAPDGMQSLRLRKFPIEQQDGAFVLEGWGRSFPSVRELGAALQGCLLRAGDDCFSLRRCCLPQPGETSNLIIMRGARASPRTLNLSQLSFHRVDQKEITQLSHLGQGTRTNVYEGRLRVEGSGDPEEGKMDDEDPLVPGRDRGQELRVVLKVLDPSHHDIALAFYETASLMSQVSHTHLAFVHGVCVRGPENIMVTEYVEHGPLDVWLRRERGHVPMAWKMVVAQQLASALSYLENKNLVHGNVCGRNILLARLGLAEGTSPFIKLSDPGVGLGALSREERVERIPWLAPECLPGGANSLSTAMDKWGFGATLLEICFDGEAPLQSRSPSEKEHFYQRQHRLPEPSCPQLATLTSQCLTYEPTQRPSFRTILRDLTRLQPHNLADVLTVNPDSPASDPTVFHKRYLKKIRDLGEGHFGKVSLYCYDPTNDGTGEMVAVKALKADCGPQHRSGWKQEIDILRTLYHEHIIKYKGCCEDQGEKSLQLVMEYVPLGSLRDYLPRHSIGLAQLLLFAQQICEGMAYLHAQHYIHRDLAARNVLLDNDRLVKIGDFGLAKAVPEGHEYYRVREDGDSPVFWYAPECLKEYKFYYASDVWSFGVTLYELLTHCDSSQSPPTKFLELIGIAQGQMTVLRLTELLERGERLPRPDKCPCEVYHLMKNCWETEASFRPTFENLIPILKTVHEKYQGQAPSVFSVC
Method: Provided compounds are evaluated for selectivity by comparing their JAK2 binding affinity (Kd) in the above JAK2 Binding Assay with their binding affinity (Kd) for one or more other kinases. Binding affinity for other kinases is determined as follows: Kinase-tagged T7 phage strains are prepared in an E. coli host derived from the BL21 strain. E. coli are grown to log-phase and infected with T7 phage and incubated with shaking at 32° C. until lysis. The lysates are centrifuged and filtered to remove cell debris. The remaining kinases are produced in HEK-293 cells and subsequently tagged with DNA for qPCR detection. Streptavidin-coated magnetic beads are treated with biotinylated small molecule ligands for 30 minutes at room temperature to generate affinity resins for kinase assays. The liganded beads are blocked with excess biotin and washed with blocking buffer (SeaBlock (Pierce), 1% BSA, 0.05% Tween 20, 1 mM DTT) to remove unbound ligand and to reduce non-specific binding. Binding reactions are assembled by combining kinases, liganded affinity beads, and test compounds in 1× binding buffer (20% SeaBlock, 0.17×PBS, 0.05% Tween 20, 6 mM DTT). Test compounds are prepared as 111× stocks in 100% DMSO. Kds are determined using an 11-point 3-fold compound dilution series with three DMSO control points. All compounds for Kd measurements are distributed by acoustic transfer (non-contact dispensing) in 100% DMSO. The compounds are then diluted directly into the assays such that the final concentration of DMSO is 0.9%. All reactions are performed in polypropylene 384-well plate. Each has a final volume of 0.02 ml. The assay plates are incubated at room temperature with shaking for 1 hour and the affinity beads are washed with wash buffer (1×PBS, 0.05% Tween 20). The beads are then re-suspended in elution buffer (1× PBS, 0.05% Tween 20, 0.5 μM non-biotinylated affinity ligand) and incubated at room temperature with shaking for 30 minutes. The kinase concentration in the eluates is measured by qPCR. […] In some embodiments, provided compounds may be JAK2-selective over one or more of the following kinases: JAK1, JAK3, and Tyk2.

Compound | efflux ratio at 2 h, 5 μM (Caco2 Permeability Assay) | Papp A→B at 2 h, 5 μM (Caco2 Permeability Assay) | TYK2/JAK2 Kd/Kd ratio (Tyk2)
CO[C@@H]1CCN(C(=O)Nc2cc(Oc3cnc4nc(Nc5cc6n(n5)CCC65CCC5)n(C)c4c3C#N)ccn2)C1 [Example I-60, (R)-N-(4-((7-cyano-2-((5′,6′-dihydrospiro[cyclobutane-1,4′-pyrrolo[1,2-b]pyrazol]-2′-yl)amino)-1-methyl-1H-imidazo[4,5-b]pyridin-6-yl)oxy)pyridin-2-yl)-3-methoxypyrrolidine-1-carboxamide] | ≤ 2 | 6 ×10⁻⁶ cm/s | D (Kd/Kd ratio <100)
COC1CN(C(=O)Nc2cc(Oc3cnc4nc(Nc5cc6n(n5)CCC65CCC5)n(C)c4c3C#N)ccn2)C1 [Example I-61, N-(4-((7-cyano-2-((5′,6′-dihydrospiro[cyclobutane-1,4′-pyrrolo[1,2-b]pyrazol]-2′-yl)amino)-1-methyl-1H-imidazo[4,5-b]pyridin-6-yl)oxy)pyridin-2-yl)-3-methoxyazetidine carboxamide] | 2 to 5 | 3 ×10⁻⁶ cm/s | D (Kd/Kd ratio <100)
COCCOC(=O)Nc1cc(Oc2cnc3nc(Nc4cc5n(n4)CCC54CCC4)n(C)c3c2C#N)ccn1 [Example I-62, 2-methoxyethyl(4-((7-cyano-2-((5′,6′-dihydrospiro[cyclobutane-1,4′-pyrrolo[1,2-b]pyrazol]-2′-yl)amino)-1-methyl-1H-imidazo[4,5-b]pyridin-6-yl)oxy)pyridin-2-yl)carbamate] | ≤ 2 | 5 ×10⁻⁶ cm/s | C (Kd/Kd ratio <300 and ≥100)
COCC(=O)Nc1cc(Oc2cnc3nc(Nc4cc(C(F)(F)F)cn(C)c4=O)n(C)c3c2Cl)ccn1 [Example I-75, N-(4-((7-chloro-1-methyl-2-((1-methyl-2-oxo-5-(trifluoromethyl)-1,2-dihydropyridin-3-yl)amino)-1H-imidazo[4,5-b]pyridin-6-yl)oxy)pyridin-2-yl)-2-methoxyacetamide] | ≤ 2 | 12 ×10⁻⁶ cm/s | C (Kd/Kd ratio <300 and ≥100)
COCC(=O)Nc1cc(Oc2cnc3nc(Nc4cc(C(F)(F)F)cn(C)c4=O)n(C)c3c2C#N)ccn1 [Example I-79, N-(4-((7-cyano-1-methyl-2-((1-methyl-2-oxo-5-(trifluoromethyl)-1,2-dihydropyridin-3-yl)amino)-1H-imidazo[4,5-b]pyridin-6-yl)oxy)pyridin-2-yl)-2-methoxyacetamide] | ≤ 2 | 15 ×10⁻⁶ cm/s | C (Kd/Kd ratio <300 and ≥100)
CC(=O)Nc1cc(Oc2cnc3nc(Nc4cc(C(F)(F)F)cn(C)c4=O)n(C)c3c2Cl)c(F)cn1 [Example I-88, N-(4-((7-chloro-1-methyl-2-((1-methyl-2-oxo-5-(trifluoromethyl)-1,2-dihydropyridin-3-yl)amino)-1H-imidazo[4,5-b]pyridin-6-yl)oxy)-5-fluoropyridin-2-yl)acetamide] | ≤ 2 | 5 ×10⁻⁶ cm/s | D (Kd/Kd ratio <100)
Cn1c(Nc2cc3n(n2)CCC32CCC2)nc2ncc(Oc3ccnc(NC(=O)C4CC4)c3)c(C#N)c21 [Example I-122, N-(4-((7-cyano-2-((5′,6′-dihydrospiro[cyclobutane-1,4′-pyrrolo[1,2-b]pyrazol]-2′-yl)amino)-1-methyl-1H-imidazo[4,5-b]pyridin-6-yl)oxy)pyridin-2-yl)cyclopropanecarboxamide] | 2 to 5 | 2 ×10⁻⁶ cm/s | D (Kd/Kd ratio <100)
CCN1CCN(Cc2ccc(Nc3nc4ccc(Oc5ccnc(NC(C)=O)c5)cc4n3C)cc2C(F)(F)F)CC1 [Example R-1, reference compound] | 10 to 30 | 0.4 ×10⁻⁶ cm/s | C (Kd/Kd ratio <300 and ≥100)
